By IC50 is commonly meant the concentration that inhibits the measured activity by half. By inhibition is commonly meant the change of the read-out against control, counted positive when it falls. Lower therefore signals a response near the control.

Molecules are shown by their SMILES.

The first assay has as its target T1, rat NaPi-2b (Rattus norvegicus, UniProt Q9JJ09).
T1 construct: expressed in transfected cells; host or cells: Xenopus oocytes injected with cRNA
T1 sequence (Q9JJ09 1-695): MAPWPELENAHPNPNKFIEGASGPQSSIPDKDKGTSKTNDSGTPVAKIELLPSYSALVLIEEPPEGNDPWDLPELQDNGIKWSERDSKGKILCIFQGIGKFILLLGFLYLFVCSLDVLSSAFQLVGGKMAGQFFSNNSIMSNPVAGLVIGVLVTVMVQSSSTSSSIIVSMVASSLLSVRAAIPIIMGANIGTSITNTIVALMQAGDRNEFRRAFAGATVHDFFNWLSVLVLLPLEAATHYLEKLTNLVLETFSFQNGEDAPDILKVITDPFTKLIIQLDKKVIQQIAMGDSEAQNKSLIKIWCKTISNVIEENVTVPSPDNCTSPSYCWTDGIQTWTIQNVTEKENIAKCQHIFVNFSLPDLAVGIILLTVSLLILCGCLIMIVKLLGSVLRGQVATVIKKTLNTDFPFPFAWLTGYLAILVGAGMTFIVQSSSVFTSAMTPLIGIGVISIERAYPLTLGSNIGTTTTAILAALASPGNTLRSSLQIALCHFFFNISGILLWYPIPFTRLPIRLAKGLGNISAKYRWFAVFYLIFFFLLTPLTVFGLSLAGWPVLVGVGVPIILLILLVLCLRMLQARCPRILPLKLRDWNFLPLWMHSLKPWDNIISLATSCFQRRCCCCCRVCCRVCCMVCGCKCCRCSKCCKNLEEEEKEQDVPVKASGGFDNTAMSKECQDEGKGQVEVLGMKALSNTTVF
Description: Sodium-dependent phosphate uptake of Xenopus oocytes which expressed NaPi-2b (32P). The format is cell-based. As to conditions: Xenopus oocytes expressing rat NaPi-2b, 32P radioactive phosphorus; read-out: IC50 (phosphate uptake inhibitory activity). The method, boiled down:
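Rat small-intestine NaPi-2b cRNA injected into Xenopus oocytes, expressed for 2 days. Sodium-dependent phosphate uptake measured with 32P; % inhibition at 300 and 100 μM taken from the same inhibition curve.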
`Cc1ccc(/C=N/NC(=O)c2cc(Cl)ccc2NC(=O)c2cccc(CN(C)CCCN(C)Cc3cccc(C(=O)Nc4ccc(Cl)cc4C(=O)N/N=C/c4ccc(C)c(C)c4)c3)c2)cc1C` [Compound 684, N1-[4-Chloro-2-({2-[(E)-1-(3,4-dimethylphenyl)methylidene]hydrazino}carbonyl}phenyl}-3-{[{3-[(3-{[4-chloro-2-({2-[(E)-1-(3,4-dimethylphenyl)methylidene]hydrazino}carbonyl}anilino}carbonyl}benzyl}(methyl)amino)propyl](methyl)amino)methyl)benzamide]: the IC50 was 54.3 µM.
As to `O=C(Nc1ccc(I)cc1C(=O)N/N=C/c1cccc(O)c1)c1cccc(CN2CCC(N3CCCCC3)CC2)c1` [Compound 490, 3-[1,4′]Bipiperidinyl-1′-ylmethyl-N-[2-(3-hydroxy-benzylidene-hydrazinocarbonyl)-4-iodo-phenyl]-benzamide], the IC50 is less than 3 µM.
Turning to `Cc1ccc(/C=N/NC(=O)c2cc(Cl)ccc2NC(=O)c2cccc(CSCc3ccco3)c2)cc1C` [Compound 683, N-[4-Chloro-2-(3,4-dimethyl-benzylidene-hydrazinocarbonyl)-phenyl]-3-(furan-2-ylmethylsulfanylmethyl)-benzamide], the IC50 was less than 3 µM.
On the same count and under the same terms, with `COc1ccc(/C=N/NC(=O)c2cc(Cl)ccc2NC(=O)c2cccc(CN(C)CCO)c2)cc1` [Compound 401, N-[4-Chloro-2-(4-methoxy-benzylidene-hydrazinocarbonyl)-phenyl]-3-{[(2-hydroxy-ethyl)-methyl-amino]-methyl}-benzamide] the figure was 6.13 µM.
Take `CCOc1ccc(C(=O)Nc2ccc(Br)cc2C(=O)N/N=C/c2cccc(F)c2)cc1` [Compound 501, N-[4-Bromo-2-(3-fluoro-benzylidene-hydrazinocarbonyl)-phenyl]-4-ethoxy-benzamide]: the IC50 is 23.1 µM.
On to `COc1ccc(/C=N/NC(=O)c2cc(Cl)ccc2NC(=O)c2cccc(CSCC(O)CO)c2)cc1` (centres unmarked) [Compound 1011, N-[4-Chloro-2-(4-methoxy-benzylidene-hydrazinocarbonyl)-phenyl]-3-(2,3-dihydroxy-propylsulfanylmethyl)-benzamide], for which the half-maximal inhibitory concentration (IC50) worked out at 1.28 µM.
Regarding `CCN(CC)CCN(C)Cc1cccc(C(=O)Nc2sc3c(c2C(=O)N/N=C/c2ccc(C)c(C)c2)CCCC3)c1` [Compound 609, 3-{[(2-Diethylamino-ethyl)-methyl-amino]-methyl}-N-[3-(3,4-dimethyl-benzylidene-hydrazinocarbonyl)-4,5,6,7-tetrahydro-benzo[b]thiophen-2-yl]-benzamide], the IC50 was less than 0.3 µM.
Same read-out and setting: next, `CCN(CC)CCN(Cc1cccc(C(=O)Nc2sc3c(c2C(=O)N/N=C/c2ccc(C)cc2)CCCC3)c1)C(C)=O` [Compound 653, 3-{[Acetyl-(2-diethylamino-ethyl)-amino]-methyl}-N-[3-(4-methyl-benzylidene-hydrazinocarbonyl)-4,5,6,7-tetrahydro-benzo[b]-thiophen-2-yl]-benzamide]: 1.1 µM.
Same read-out and setting: next, `COc1ccc(C(=O)Nc2ccccc2C(=O)N/N=C/c2cccc(O)c2)cc1` [Compound 50, N-[2-(3-Hydroxy-benzylidene-hydrazinocarbonyl)-phenyl]-4-methoxy-benzamide]: 19.5 µM; `CCN1CC(NCc2ccc(C(=O)Nc3ccc(Br)cc3C(=O)N/N=C/c3ccc(C)c(C)c3)cc2)CN1CC` [Compound 750, N-[4-Bromo-2-(3,4-dimethyl-benzylidene-hydrazinocarbonyl)-phenyl]-4-[(1,2-diethyl-pyrazolidin-4-ylamino)-methyl]-benzamide]: less than 3 µM; `CC(O)CN(Cc1cccc(C(=O)Nc2sc3ccccc3c2C(=O)N/N=C/c2ccc(Cl)c(C(F)(F)F)c2)c1)CC(C)O` (centres unmarked) [Compound 796, 3-{[Bis-(2-hydroxy-propyl)-amino]-methyl}-N-[3-(4-chloro-3-trifluoromethyl-benzylidene-hydrazinocarbonyl)-benzo[b]thiophen-2-yl]-benzamide]: 0.35 µM.
With `CCN(CC)CCN(CCN(CC)CC)Cc1cccc(C(=O)Nc2sc3c(c2C(=O)N/N=C/c2ccc(C)cc2)CCCC3)c1` [Compound 1056, 3-{[Bis-(2-diethylamino-ethyl)-amino]-methyl}-N-[3-(4-methyl-benzylidene-hydrazinocarbonyl)-4,5,6,7-tetrahydro-benzo[b]thiophen-2-yl]-benzamide], the IC50 is 1.88 µM.
For `COc1ccc(C(=O)Nc2ccccc2C(=O)N/N=C/c2ccc(O)cc2)cc1OC` [Compound 19, N-[2-(4-Hydroxy-benzylidene-hydrazinocarbonyl)-phenyl]-3,4-dimethoxy-benzamide], the IC50 was 8.16 µM.
With `Cc1ccc(/C=N/NC(=O)c2cc(Cl)ccc2NC(=O)c2ccc(CN(C)CCO)cc2)cc1` [Compound 415, N-[4-Chloro-2-(4-methyl-benzylidene-hydrazinocarbonyl)-phenyl]-4-{[(2-hydroxy-ethyl)-methyl-amino]-methyl}-benzamide], the IC50 is less than 3 µM.
On to `Cc1cccc(/C=N/NC(=O)c2cc(Cl)ccc2NC(=O)c2ccccn2)c1` [Compound 361, Pyridin-2-carboxylic acid [4-chloro-2-(3-methyl-benzylidene-hydrazinocarbonyl)-phenyl]-amide], for which the IC50 is less than 1 µM.
With `COc1ccc(C(=O)Nc2cc(Cl)ccc2C(=O)N/N=C/c2cccc(C)c2)cc1OC` [Compound 73, N-[5-Chloro-2-(3-methyl-benzylidene-hydrazinocarbonyl)-phenyl]-3,4-dimethoxy-benzamide], the IC50 stood at 1.75 µM.
In the case of `Cc1cccc(/C=N/NC(=O)c2cc(I)ccc2NC(=O)c2cccc(CN3CCC(N4CCCCC4)CC3)c2)c1` [Compound 484, 3-[1,4′]Bipiperidinyl-1′-ylmethyl-N-[4-iodo-2-(3-methyl-benzylidene-hydrazinocarbonyl)-phenyl]-benzamide], the IC50 is less than 3 µM.
On the same count and under the same terms, next, `CN(CCO)Cc1ccc(C(=O)Nc2ccc(Cl)cc2C(=O)N/N=C/c2cccc(F)c2)cc1` [Compound 412, N-[4-Chloro-2-(3-fluoro-benzylidene-hydrazinocarbonyl)-phenyl]-4-{[(2-hydroxy-ethyl)-methyl-amino]-methyl}-benzamide]: 7.96 µM.
`CCN(CC)CCN(C)Cc1cccc(C(=O)Nc2c(C)csc2C(=O)N/N=C/c2ccc(C)cc2)c1` [Compound 343, 3-{[(2-Diethylamino-ethyl)-methyl-amino]-methyl}-N-[4-methyl-2-(4-methyl-benzylidene-hydrazinocarbonyl)-thiophen-3-yl]-benzamide]: the IC50 was found to be 124 µM.
In the case of `COc1ccc(/C=N/NC(=O)c2cc(Cl)ccc2NC(=O)c2cccc(CN(CCO)CCO)c2)cc1` [Compound 409, 3-{[Bis-(2-hydroxy-ethyl)-amino]-methyl}-N-[4-chloro-2-(4-methoxy-benzylidene-hydrazinocarbonyl)-phenyl]-benzamide], the IC50 was determined as 2.52 µM.
Turning to `COc1ccc(/C=N/NC(=O)c2cc(Cl)ccc2NC(=O)c2cccc(CSc3nnnn3CCN(C)C)c2)cc1` [Compound 469, N-[4-Chloro-2-(4-methoxy-benzylidene-hydrazinocarbonyl)-phenyl]-3-[1-(2-dimethylamino-ethyl)-1H-tetrazol-5-ylsulfanylmethyl]-benzamide], the IC50 is 33.2 µM.
In the case of `Cc1ccc(/C=N/NC(=O)c2c(NC(=O)c3cccc(CN4CCC(CO)CC4)c3)sc3c2CCC3)cc1C` [Compound 816, N-[3-(3,4-Dimethyl-benzylidene-hydrazinocarbonyl)-5,6-dihydro-4H-cyclopenta[b]thiophen-2-yl]-3-(4-hydroxymethyl-piperidin-1-ylmethyl)-benzamide], the IC50 was determined as 14.8 µM.

Still in this assay, the particulars now being: phosphate uptake, oocytes expressing rat NaPi-2b; 300 μM, determined from inhibition curve.
Turning to `COc1cc(OC)cc(C(=O)Nc2ccc(O)cc2C(=O)N/N=C/c2cccc(F)c2)c1` [Compound 242, N-[2-(3-Fluoro-benzylidene-hydrazinocarbonyl)-4-hydroxy-phenyl]-3,5-dimethoxy-benzamide], 300 µM produced 37.6% inhibition.
`Cc1ccc(/C=N/NC(=O)c2cc(Cl)ccc2NC(=O)c2cnc3ccccc3n2)cc1C` [Compound 1005, Quinoxaline-2-carboxylic acid [4-chloro-2-(3,4-dimethyl-benzylidene-hydrazinocarbonyl)-phenyl]-amide] registered an inhibition at 300 µM of 59.1%.
`C/C(=N\NC(=O)c1ccccc1NC(=O)c1ccncc1)c1cccc(C)c1` [Compound 249, N-[2-(1-m-Toluyl-ethylidene-hydrazinocarbonyl)-phenyl]-isonicotinamide] returned an inhibition at 300 µM of 41.6%.
`CCN(CC)CCN(C)Cc1cccc(C(=O)Nc2sccc2C(=O)N/N=C/c2ccc(C)cc2)c1` [Compound 665, 3-{[(2-Diethylamino-ethyl)-methyl-amino]-methyl}-N-[3-(4-methyl-benzylidene-hydrazinocarbonyl)-thiophen-2-yl]-benzamide] gave an inhibition at 300 µM of 82.3%.

Values taken from patent US8134015B2, “Compound inhibiting in vivo phosphorous transport and medicine containing the same” (Kyowa Hakko Kirin Co., Ltd., priority 2003, dated 2012).
